Laboratory results: ChEMBL document CHEMBL4665757, “Design and synthesis of dual active neovibsanin derivatives based on a chemical structure merging method” (Bioorg Med Chem Lett, 2020)
Activity calls are given as the source filed them. No cut-off for these calls is given here.

What was measured:
[1] = test system: PC-12; experiment: Induction of neurite outgrowth in rat PC12 cells at 0.3 to 30 uM incubated for 4 days in presence of NGF by phase contrast microscopic analysis; assay type: functional, cell-based; settings: dose microM 0.3-30, time 4.0 day
[2] = Solubility in water; assay type: physicochemical; settings: buffer
[3] = test system: PC-12; experiment: Induction of neurite outgrowth in rat PC12 cells at 30 uM incubated for 4 days by phase contrast microscopic analysis; assay type: functional, cell-based; settings: time 4.0 day
[4] = test system: PC-12; experiment: Induction of neurite outgrowth in rat PC12 cells at 30 uM incubated for 4 days in presence of NGF by phase contrast microscopic analysis; assay type: functional, cell-based; settings: time 4.0 day

solubility [2] | Compound | Activity [1] | Activity [3] | Activity [4]
Insoluble | COc1ccc(/C=C/[C@@H]2C[C@@]34OC(C)(O)C[C@@H]3OCC4=C[C@H]2c2ccc(OC)c(OC)c2)cc1OC (mixture of isomers) | Active | Active | 
 | COC1(C)C[C@@H]2OCC3=CCCC[C@]32O1 (stereo not given in full) |  |  | Active
 | COc1ccc(/C=C/[C@@H]2CCC=C[C@H]2c2ccc(OC)c(OC)c2)cc1OC |  | Active | 
